Measured values taken from patent US20210139947A1, “METHOD FOR ASSESSING SUSCEPTIBILITY OF A VIRUS TO TREATMENT BY MEASURING ENZYME ACTIVITY AND A SYSTEM THEREFORE” (priority 2017, published 2021).
Like-named read-outs stand apart in the source and are kept apart here.

Experiments:
[1] = test system: BLV RT, Cell culture virus FLK-BLV cells; experiment: Drug resistance indicator assay, remaining RT activity; details: EFV 9.0 μM
Protocol: (This cell line is chronically infected by BLV).
(§5) Drug reaction solution: A buffer identical to above mentioned RT Reaction solution with a defined concentration of an antiviral drug added.
(§6) Each lysate is split into two aliquots, one whereof is added to a well containing drug at a predetermined concentration, and one whereof is added to a well without added drug. Apart from the lysates, said HIV drug susceptibility reference samples are also included in the assay.
(§7) The virus susceptibility to treatment with the drug can be determined from the relation between the enzyme activities in the presence and in absence of the drug. This can be expressed as percent remaining RT activity, i.e. the quota between signal in presence of drug and signal in absence of drug times 100.

[2] = test system: HIV-2 RT, Cell culture virus CRF01_AB; experiment: as above; details: EFV 9.0 μM; HIV-2 CRF01_AB
Protocol: as §5, §6, §7

[3] = molecular target: HTLV-2 RT, Cell culture virus (Human T-cell leukemia virus 2, UniProt P03363); experiment: as above
Chain of HTLV-2 RT, Cell culture virus (P03363 580-1166): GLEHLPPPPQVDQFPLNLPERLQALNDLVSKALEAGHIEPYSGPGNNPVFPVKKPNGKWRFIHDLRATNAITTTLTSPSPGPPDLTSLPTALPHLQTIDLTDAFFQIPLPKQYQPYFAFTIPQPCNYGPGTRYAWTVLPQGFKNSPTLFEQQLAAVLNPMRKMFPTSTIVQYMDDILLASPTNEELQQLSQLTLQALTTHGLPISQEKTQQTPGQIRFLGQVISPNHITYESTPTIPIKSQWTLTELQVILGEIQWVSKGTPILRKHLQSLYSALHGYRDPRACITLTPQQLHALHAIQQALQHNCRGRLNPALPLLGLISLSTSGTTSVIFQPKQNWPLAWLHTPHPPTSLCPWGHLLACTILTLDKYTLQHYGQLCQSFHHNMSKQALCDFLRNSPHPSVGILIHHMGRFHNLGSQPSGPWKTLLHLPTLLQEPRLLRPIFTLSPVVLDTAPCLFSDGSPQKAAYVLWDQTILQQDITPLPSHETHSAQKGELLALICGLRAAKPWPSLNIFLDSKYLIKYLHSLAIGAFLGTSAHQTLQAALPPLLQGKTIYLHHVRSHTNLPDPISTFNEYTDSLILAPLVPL
Protocol: as §5
Each lysate is split into two aliquots, one whereof is added to a well containing drug at a predetermined concentration, and one whereof is added to a well without added drug.
as §7

[4] = test system: JSRV RT, Cell culture virus UK strain; experiment: as above; details: EFV 9.0 μM
Protocol: as §5, §6, §7

[5] = test system: 69SG + 5M Recombinant RT HXB2 M41L,T69S-SG, L210W, R211K, L214F, T215Y; experiment: as above; details: EFV 9.0 μM
Protocol: as §5, §6, §7

[6] = test system: HTLV-1 RT, Cell culture virus MT-2 Cells; experiment: as above; details: EFV 9.0 μM
[7] = test system: RT extracted from HIV-1 C Plasma Sa72 wild type; experiment: as above; format: biochemical
Protocol: (§1) Isolation of HIV is performed in a separation plate, a 96 deep-well microplate (well volume 2 ml). The Viral Load assay is started by addition of 40 μl sample additive e.g 5,5′-dithiobis-(2-nitrobenzoic acid) to each well (see FIG. 2). Thereafter the patient plasmas and control samples are added. Sample additive is mixed with the plasma prior to isolation of HIV for inactivation of certain enzymes present in the plasma. After 20 minutes incubation, a slurry containing 1 μm magnetic polymeric beads, is added to the wells. The positively charged beads are used to capture the HIV particles. At low pH (e.g. 5.5) and appropriate salt concentration the negatively charged HIV particles bind to the beads while most of the other components present in plasma will not bind, e.g. the proteins (antibodies) and anti-retroviral drugs (ARVs). After an additional five minutes incubation, the microwell plate is transported to a magnetic plate. When exposed to the magnetic field from the magnetic plate, the beads will be trapped to the walls of the wells. The plasma can then be removed by aspiration using a pipette. The separation plate is then transported back to the shaker, away from the magnetic plate.
(§2) The wash procedure (see FIG. 3) starts by adding a first wash buffer, the Bead Wash Buffer, and the entire separation plate will be shaken during three minutes to resuspend the beads. After that, the separation plate is moved to the magnetic plate where the beads will be exposed to the magnetic field and trapped to the walls of the wells. Next, the wash buffer is aspirated. The separation plate is then transported back to the shaker, away from the magnetic plate. In the current example, this wash procedure is repeated three times with the Bead Wash Buffer (referred to as “Wash solution 1” in FIG. 3) and one time with the second wash buffer, the so called Bead Reconditioning Buffer (referred to as “Wash solution 2” in FIG. 3).
(§3) The reverse transcriptase (RT) is now to be extracted from the viral particles, which is illustrated in FIG. 4. The HIV particle is composed of a protein core surrounded by a lipid bilayer envelope that will break if it is exposed to certain detergents. Once the lipid bilayer envelope is dissolved, the protein core falls apart and the RT inside is released. When the last wash step is finalized, lysis buffer containing e. g. the detergent Synperonic A11 is added to the wells, in FIG. 4 referred to as “lysis buffer”. The virus envelope breaks and the reverse transcriptase, RT, is released. With the magnetic beads still bound to the walls of the wells, the lysate containing the released RT is collected by aspiration and used in the subsequent RT reaction step.

[8] = test system: RT extracted from HIV-1 C Plasma Sa147 K103N, E138Q, Y318F, M184V; experiment: as above; format: biochemical
Protocol: as §1, §2, §3

[9] = test system: 69SS + 5M Recombinant RT HXB2 M41L,T69S-SS, L210W, R211K, L214F, T215Y; experiment: as above; details: EFV 9.0 μM
Protocol: as §5, §6, §7

[10] = molecular target: T1, MMTV Recombinant RT BR6 strain (Mouse mammary tumor virus, UniProt P03365); experiment: as above
T1 sequence (P03365 861-1436 limits assumed): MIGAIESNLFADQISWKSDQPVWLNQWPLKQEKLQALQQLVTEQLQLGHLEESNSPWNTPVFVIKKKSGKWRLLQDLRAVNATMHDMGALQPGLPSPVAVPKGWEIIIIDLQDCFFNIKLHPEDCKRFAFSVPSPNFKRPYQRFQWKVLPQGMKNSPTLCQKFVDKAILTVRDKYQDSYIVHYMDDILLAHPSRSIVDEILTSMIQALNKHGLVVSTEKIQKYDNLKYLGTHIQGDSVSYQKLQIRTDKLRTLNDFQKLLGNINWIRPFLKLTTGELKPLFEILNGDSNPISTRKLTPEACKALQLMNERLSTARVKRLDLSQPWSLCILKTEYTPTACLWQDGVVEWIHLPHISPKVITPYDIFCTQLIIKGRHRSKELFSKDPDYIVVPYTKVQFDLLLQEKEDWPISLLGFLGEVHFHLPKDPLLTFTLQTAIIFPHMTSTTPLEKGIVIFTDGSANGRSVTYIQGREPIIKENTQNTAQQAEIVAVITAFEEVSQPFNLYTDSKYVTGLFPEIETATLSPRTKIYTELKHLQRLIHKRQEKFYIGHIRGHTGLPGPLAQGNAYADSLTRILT

[11] = test system: FIV RT, Cell culture virus M2 CladB; experiment: as above; format: biochemical
Protocol: (§4) The RT extracts recovered from this process and the other RT samples were analyzed for remaining activity according to above described drug resistance indicator assay.

[12] = molecular target: T2, SIV Recombinant RT SIVsmH4 (Simian immunodeficiency virus, UniProt P12502); experiment: as above; format: biochemical; details: for remaining activity at 9 µM: EFV 9.0 μM
T2 construct: The recombinantly expressed and purified SIV RT was derived from the molecular clone pSIVsm/H4; made in house; host or cells: E. coli BL21 (DE3), vector pSRT.ET 11c
T2 sequence (P12502 598-1156 limits assumed): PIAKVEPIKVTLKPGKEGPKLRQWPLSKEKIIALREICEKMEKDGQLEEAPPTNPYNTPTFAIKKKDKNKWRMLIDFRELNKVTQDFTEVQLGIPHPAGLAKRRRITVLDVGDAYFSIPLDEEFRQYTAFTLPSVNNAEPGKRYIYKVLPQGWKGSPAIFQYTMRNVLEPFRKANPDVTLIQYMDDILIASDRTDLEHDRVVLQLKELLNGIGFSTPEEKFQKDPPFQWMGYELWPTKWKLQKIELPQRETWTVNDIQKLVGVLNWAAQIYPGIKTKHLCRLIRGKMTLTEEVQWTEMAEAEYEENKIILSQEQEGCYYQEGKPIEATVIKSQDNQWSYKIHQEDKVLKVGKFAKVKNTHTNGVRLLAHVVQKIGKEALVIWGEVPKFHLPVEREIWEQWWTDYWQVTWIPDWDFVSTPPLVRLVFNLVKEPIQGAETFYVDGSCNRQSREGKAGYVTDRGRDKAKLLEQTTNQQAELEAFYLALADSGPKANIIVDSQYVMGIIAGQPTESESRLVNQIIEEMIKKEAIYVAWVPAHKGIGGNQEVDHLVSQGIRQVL
Protocol: The recombinantly expressed and purified SIV RT was derived from the molecular clone pSIVsm/H4. An expression vector pSRT.ET 11c was constructed and expression of SIV-RT in E. coli strain BL21 (DE3) in ordinary LB medium was carried out. The enzyme was purified in three chromatographic steps on a Heparin Sepharose CL-6B column, a Sepharose FF column and a Phenyl Sepharose CL-4B column.
as §4

[13] = test system: PERV RT, Cell culture virus PERV-PK15; experiment: as above; details: EFV 9.0 μM, 6 mM Mn2+
Protocol: Virus culture supernatant was cleared from cell debris by centrifugation, aliquoted and stored at −70° C. until use
as §5
All buffers used for analysis of γ-retroviruses RTs were supplemented with 6 mM Mn2+, but were otherwise identical to the buffers described above.
as §6, §7

[14] = test system: Mammalian γ -polymerase, mithochondria, Beef Heart; experiment: Drug resistance indicator assay, remaining polymerase activity; details: EFV 9.0 μM
Protocol: as §5, §6, §7

[15] = molecular target: T3, HIV-1 B Recombinant RT BH10 wild type (Human immunodeficiency virus type 1 group M subtype B, UniProt P03366); experiment: biochemical; details: read-out: Remaining activity (% of actvity in absence of drug)
T3 construct: His-tag (C); made in house; host or cells: E. coli BL21 (DE3); plasmid purchased from Genescript
Protocol: as §4

[16] = molecular target: HIV-1 B Recombinant RT HXB2 wild type (Human immunodeficiency virus type 1 group M subtype B, UniProt P04585); experiment: biochemical; details: read-out: Remaining activity (% of actvity in absence of drug)
Protocol: as §4

O=C1Nc2ccc(Cl)cc2[C@@](C#CC2CC2)(C(F)(F)F)O1 [EFV, (−)6-chloro-4-cyclopropylethynyl-4-trifluoromethyl-I,4-dihydro-2H-3,1-benzoxazin-2-one]
Remaining activity (%) [1]: 101.7%
Remaining activity (%) [2]: 100.2%
remaining activity at 9 µM [3]: 91.7%
Remaining activity (%) [4]: 102.7%
Remaining activity (%) [5]: 3.9%
Remaining activity (%) [6]: 93.8%
Remaining activity (% of actvity in absence of drug) ([7]; EFV 9.0 μM): 8.3%
Remaining activity (% of actvity in absence of drug) ([8]; EFV 9.0 μM): 87.8%
Remaining activity (%) [9]: 3.5%
remaining activity at 9 µM [10]: 102%
Remaining activity (% of actvity in absence of drug) ([11]; EFV 9.0 μM): 93.6%
Remaining activity (%) ([11]; EFV 9.0 μM): 93.6%
remaining activity at 9 µM ([12]; SIVsmH4, read-out: Remaining activity (% of actvity in absence of drug)): 99.9%
remaining activity at 9 µM ([12]; SIVsmH4, read-out: Remaining activity (%)): 103%
Remaining activity (%) [13]: 98.0%
Remaining activity (%) [14]: 94.8%

Cc1cc(C#N)cc(C)c1Oc1nc(Nc2ccc(C#N)cc2)nc(N)c1Br [ETV, 4-({6-amino-5-bromo-2-[(4-cyanophenyl)amino]pyrimidin-4-yl}oxy)-3,5-dimethylbenzonitrile]
Remaining activity (% of actvity in absence of drug) ([7]; ETV 21.8 μM): 6.5%
Remaining activity (% of actvity in absence of drug) ([8]; ETV 21.8 μM): 68.0%
Remaining activity (% of actvity in absence of drug) ([11]; ETV 21.8 μM): 90.6%
remaining activity at 21.8 µM ([12]; ETV 21.8 μM, SIVsmH4, read-out: Remaining activity (% of actvity in absence of drug)): 98.5%
remaining activity at 21.8 µM [15]: 3.5%
remaining activity at 21.8 µM [16]: 2.8%

Cc1ccnc2c1NC(=O)c1cccnc1N2C1CC1 [NPV, 11-cyclopropyl-5,11-dihydro-4-methyl-6H-dipyrido[3,2-b:2′,3′-f][1,4]diazepin-6-one]
Remaining activity (% of actvity in absence of drug) ([7]; NPV 81.0 μM): 16.1%
Remaining activity (% of actvity in absence of drug) ([8]; NPV 81.0 μM): 94.9%
Remaining activity (% of actvity in absence of drug) ([11]; NPV 81.0 μM): 87.7%
remaining activity at 81 µM ([12]; read-out: Remaining activity (% of actvity in absence of drug)): 99.5%
remaining activity at 81 µM [15]: 3.4%
remaining activity at 81 µM [16]: 8.1%

Cc1cc(/C=C/C#N)cc(C)c1Nc1ccnc(Nc2ccc(C#N)cc2)n1 [RPV, 4-{[4-({4-[(1E)-2-cyanoeth-1-en-1-yl]-2,6-dimethylphenyl}amino)pyrimidin-2-yl]amino}benzonitrile]
Remaining activity (% of actvity in absence of drug) ([7]; RPV 12.0 μM): 9.3%
Remaining activity (% of actvity in absence of drug) ([8]; RPV 12.0 μM): 80.8%
Remaining activity (% of actvity in absence of drug) ([11]; RPV 12.0 μM): 86.1%
remaining activity at 12 µM ([12]; RPV 12.0 μM, SIVsmH4, read-out: Remaining activity (% of actvity in absence of drug)): 108%
remaining activity at 12 µM ([15]; RPV 12.0 μM, BH10 wild type): 2.5%
remaining activity at 12 µM ([16]; RPV 12.0 μM, HXB2 wild type): 2.4%
